Structures can show the parent of a compound that is named as a salt.
What was measured:
TEL-VEGFR2-BaF3 = assay: Proliferation of TEL-VEGFR2-BaF3 cells, CCK8 cell viability assay; assay type: cell-based; settings: Mus musculus, 72 hours, stably expressing VEGFR2 kinase
Source text: (§1) In this example the following cells were used: […] (purchased from ATCC), mouse P210-BaF3 (stably expressing BCR-ABL mutant activated kinase), mouse P210/T315I-BaF3 (stably expressing BCR-ABL/T315I mutant activated kinase), mouse FLT3-ITD-BaF3 (stably expressing FLT3/ITD mutant activated kinase), mouse TEL-FLT3-BaF3 (stably expressing FLT3 kinase), mouse TEL-cKIT-BaF3 (stably expressing cKIT kinase), mouse BaF3-tel/T670I-cKit (stably expressing cKIT/T670I mutant activated kinase), mouse Tel-VEGFR2-BaF3 (stably expressing VEGFR2 kinase), mouse Tel-PDGFRα-BaF3 (stably expressing PDGFRα kinase), mouse Tel-PDGFRβ-BaF3 (stably expressing PDGFRβ kinase), mouse Tel-RET-BaF3 (stably expressing RET kinase). The above cell lines were all constructed by our laboratory according to the following method: the kinase region sequences of human P210, P210/T315I, FLT3/ITD, FLT3, cKIT, cKIT/T670I, VEGFR2, PDGFRα, PDGFRβ, RET were respectively amplified by PCR, and inserted into MSCV-Puro vectors having N-terminal TEL or TPR fragments (Clontech). The vectors were stably transfected into mouse BaF3 cells by means of retrovirus, and the growth factor IL-3 were removed, eventually obtaining cell lines that depend on transferred protein P210, P210/T315I, FLT3/ITD, FLT3, cKIT, cKIT/T670I, VEGFR2, PDGFRα, PDGFRβ, or RET.
(§2) GI50 (unit: μM) was calculated by quantifying the number of living cells based on quantitative measurement of reductive dehydrogenase in living cells with CCK8 cell viability assay kit (Bestbio, China).

TEL-PDGFRα-BaF3 = assay: Proliferation of TEL-PDGFRα-BaF3 cells, CCK8 cell viability assay; assay type: cell-based; settings: Mus musculus, 72 hours, stably expressing PDGFRα kinase
Source text: as §1, §2

Tel-FLT3-BaF3 = assay: Proliferation of Tel-FLT3-BaF3 cells, CCK8 cell viability assay; assay type: cell-based; settings: Mus musculus, 72 hours, stably expressing FLT3 kinase
Source text: as §1, §2

Tel-cKit/T670I-BaF3 = assay: Proliferation of Tel-cKit/T670I-BaF3 cells, CCK8 cell viability assay; assay type: cell-based; settings: Mus musculus, 72 hours, stably expressing cKIT/T670I
Source text: as §1, §2

P210-BaF3 = assay: Proliferation of P210-BaF3 cells, CCK8 cell viability assay; assay type: cell-based; settings: Mus musculus, 72 hours, stably expressing BCR-ABL mutant activated kinase
Source text: as §1, §2

FLT3-ITD-BaF3 = assay: Proliferation of FLT3-ITD-BaF3 cells, CCK8 cell viability assay; assay type: cell-based; settings: Mus musculus, 72 hours, stably expressing FLT3/ITD
Source text: as §1, §2

BaF3 = assay: Proliferation of BaF3 cells, CCK8 cell viability assay; assay type: cell-based; settings: Mus musculus, 72 hours
Source text: as §1, §2

TEL-PDGFRβ-BaF3 = assay: Proliferation of TEL-PDGFRβ-BaF3 cells, CCK8 cell viability assay; assay type: cell-based; settings: Mus musculus, 72 hours, stably expressing PDGFRβ kinase
Source text: as §1, §2

Tel-cKit-BaF3 = assay: Proliferation of Tel-cKit-BaF3 cells, CCK8 cell viability assay; assay type: cell-based, mouse; settings: for GI50: Mus musculus, 72 hours, CCK8, stably expressing cKIT kinase
Source text: as §1, §2

Tel-RET-BaF3 = assay: Proliferation of Tel-RET-BaF3 cells, CCK8 cell viability assay; assay type: cell-based; settings: Mus musculus, 72 hours, stably expressing RET kinase
Source text: as §1, §2

P210/T315I-BaF3 = assay: Proliferation of P210/T315I-BaF3 cells, CCK8 cell viability assay; assay type: cell-based; settings: Mus musculus, 72 hours, stably expressing BCR-ABL/T315I
Source text: as §1, §2

Structure (SMILES) | GI50 (TEL-VEGFR2-BaF3) | GI50 (TEL-PDGFRα-BaF3) | GI50 (Tel-FLT3-BaF3) | GI50 (Tel-cKit/T670I-BaF3) | GI50 (P210-BaF3) | GI50 (FLT3-ITD-BaF3) | GI50 (BaF3) | GI50 (TEL-PDGFRβ-BaF3) | GI50 (Tel-cKit-BaF3) | GI50 (Tel-RET-BaF3) | GI50 (P210/T315I-BaF3) | inhibition of cKIT (in words) (Tel-cKit-BaF3; summary of Table 2)
CC(=O)Nc1cc(Oc2ccc(NC(=O)Cc3ccccc3I)cc2)ncn1 [Example 4, N-[4-(6-acetylamino-pyrimidin-4-yloxy)-phenyl]-2-(2-iodo-phenyl)-acetamide] | 734 nM | 13 nM | 667 nM | > 10 µM | > 10 µM | 61 nM | > 10 µM | 48 nM | > 10000 nM | > 10 µM |  | 
COCCNc1cc(Oc2ccc(NC(=O)Nc3ccc(C(F)(F)F)cc3)cc2)ncn1 [Example 73, 1-{4-[6-(2-methoxy-ethylamino)-pyrimidin-4-yloxy]-phenyl}-3-(4-trifluoromethyl-phenyl)-urea] |  | 165 nM | 1570 nM | > 10 µM | > 10 µM | 170 nM | > 10 µM | 154 nM | 5680 nM | > 10 µM | > 10000 nM | 
COc1ccc(CNc2cc(Oc3ccc(NC(=O)Nc4ccc(CN5CCNCC5)c(C(F)(F)F)c4)cc3)ncn2)cc1 [Example 180, 1-{4-[6-(4-methoxy-benzylamino)-pyrimidin-4-yloxy]-phenyl}-3-(4-piperazin-1-ylmethyl-3-trifluoromethyl-phenyl)-urea] | 39 nM | 112 nM | 22 nM | 2.85 µM |  | 3 nM | 9.01 µM | 315 nM | 330 nM | 0.331 µM | 1720 nM | 
Cc1ccc(NC(=O)Nc2ccc(Oc3cc(N4CCNC[C@H]4C)ncn3)cc2)cc1C(F)(F)F [Example 105, (R)-1-(4-methyl-3-(trifluoromethyl)phenyl)-3-(4-((6-(2-methylpiperazin-1-yl)pyrimidin-4-yl)oxy)phenyl)urea] | 323 nM | 14 nM | 200 nM | 2.16 µM |  | 86 nM | 9.67 µM | 195 nM | 990 nM | 2.75 µM |  | 
CN1CCN(Cc2ccc(NC(=O)Nc3ccc(Oc4cc(NCCN)ncn4)cc3)cc2C(F)(F)F)CC1 [Example 108, 1-{4-[6-(2-amino-ethylamino)-pyrimidin-4-yloxy]-phenyl}-3-[4-(4-methyl-piperazin-1-ylmethyl)-3-trifluoromethyl-phenyl]-urea] | 98 nM | 16 nM | 11 nM | 7.82 µM |  | 9 nM | > 10 µM | 324 nM | 970 nM | 3.88 µM |  | 
Cc1ccc(NC(=O)Nc2ccc(Oc3cc(N[C@H](C)CNC(=O)OC(C)(C)C)ncn3)cc2)cc1C(F)(F)F [Example 112, (R)-(2-((6-(4-(3-(4-methyl-3-(trifluoromethyl)phenyl)ureido)phenoxy)pyrimidin-4-yl)amino)propyl)aminotert-butyl Formate] | 390 nM | 23 nM | 599 nM | 0.886 µM |  | 58 nM | 4.12 µM | 51 nM | 1070 nM | 3.82 µM |  | 
Cc1ccc(NC(=O)Nc2ccc(Oc3cc(NC4CCN(C(=O)OC(C)(C)C)CC4)ncn3)cc2)cc1C(F)(F)F [Example 99, 4-(6-{4-[3-(4-methyl-3-trifluoromethyl-phenyl)-ureido]-phenoxy}-pyrimidin-4-ylamino)-piperidin-1-tert-butyl Formate] | 202 nM | 14 nM | 66 nM | 0.99 µM |  | 17 nM | > 10 µM | 277 nM | 340 nM | 4.6 µM |  | 
Cc1ccc(NC(=O)Nc2ccc(Oc3cc(N4CCNC[C@@H]4C)ncn3)cc2)cc1C(F)(F)F [Example 107, (S)-1-(4-methyl-3-(trifluoromethyl)phenyl)-3-(4-((6-(2-methylpiperazin-1-yl)pyrimidin-4-yl)oxy)phenyl)urea] | 508 nM | 34 nM | 340 nM | 0.94 µM |  | 150 nM | 8.12 µM | 117 nM | 2850 nM | 1.98 µM |  | 
Cc1ccc(NC(=O)Nc2ccc(Oc3cc(N4CCNCC4C)ncn3)cc2)cc1C(F)(F)F (centres unmarked) [Example 104, 1-{4-[6-(2-methyl-piperazin-1-yl)-pyrimidin-4-yloxy]-phenyl}-3-(4-methyl-3-trifluoromethyl-phenyl)-urea] | 2890 nM | 14 nM | 670 nM | 5.13 µM |  | 290 nM | 8.48 µM | 173 nM | 1800 nM | 3.62 µM |  | 
CC(=O)Nc1cc(Oc2ccc(NC(=O)Cc3c(Cl)cccc3Cl)cc2)ncn1 [Example 6, N-[4-(6-acetylamino-pyrimidin-4-yloxy)-phenyl]-2-(2,6-dichloro-phenyl)-acetamide] | 1930 nM | 59 nM | 663 nM | > 10 µM | > 10 µM | 63 nM | > 10 µM | 346 nM | > 10000 nM | > 10 µM |  | 
Cc1ccc(NC(=O)Nc2ccc(Oc3cc(N4CCN(C(=O)CC(C)(C)C)C[C@H]4C)ncn3)cc2)cc1C(F)(F)F [Example 115, (R)-1-(4-((6-(4-(3,3-dimethylbutyryl)-2-methylpiperazin-1-yl)pyrimidin-4-yl)oxy)phenyl)-3-(4-methyl-3-(trifluoromethyl)phenyl)urea] | 2280 nM | 52 nM | 2190 nM | 4.25 µM |  | 413 nM | 9.87 µM | 190 nM | 2120 nM | 3.97 µM |  | 
CCN1CCN(Cc2ccc(NC(=O)Nc3ccc(Oc4cc(NCCN)ncn4)cc3)cc2C(F)(F)F)CC1 [Example 109, 1-{4-[6-(2-amino-ethylamino)-pyrimidin-4-yloxy]-phenyl}-3-[4-(4-ethyl-piperazin-1-ylmethyl)-3-trifluoromethyl-phenyl]-urea] | 145 nM | 13 nM | 11 nM | 3.36 µM |  | 7 nM | 3.54 µM | 392 nM | 999 nM | 0.46 µM |  | 
CNC(=O)c1cc(Oc2ccc(NC(=O)Nc3ccc(Cl)c(C(F)(F)F)c3)cc2)ccn1 [Sorafenib, reference compound] |  | 0.6 nM | 0.9 nM | 0.112 µM | 3.83 µM | 0.3 nM | 6.99 µM | 35 nM | 58 nM | 0.365 µM |  | strongly inhibits
Cc1ccc(NC(=O)Nc2ccc(Oc3cc(N[C@H](C)CN)ncn3)cc2)cc1C(F)(F)F [Example 113, (R)-1-(4-((6-((1-aminoprop-2-yl)amino)pyrimidin-4-yl)oxy)phenyl)-3-(4-methyl-3-(trifluoromethyl)phenyl)urea] | 1260 nM | 86 nM | 638 nM | 8.54 µM |  | 259 nM | > 10 µM | 170 nM | 3220 nM | > 10 µM |  | 
Cc1ccc(NC(=O)Nc2ccc(Oc3cc(N4CCN(C(=O)OC(C)(C)C)C[C@H]4C)ncn3)cc2)cc1C(F)(F)F [Example 100, (R)-3-methyl-4-(6-(4-(3-(4-methyl-3-(trifluoromethyl)phenyl)ureido)phenoxy)pyrimidin-4-yl)piperazin-1-tert-butyl Formate] | 1660 nM | 63 nM | 600 nM | 8.08 µM |  | 30 nM | 9.01 µM | 342 nM | 1520 nM | 5.82 µM |  | 

Source: patent US11602534B2, “Pyrimidine derivative kinase inhibitors” (HEFEI INSTITUTES OF PHYSICAL SCIENCE, CHINESE ACADEMY OF …, priority 2017, dated 2023)
